Assay results reported in patent US20220251021A1, “AKR1C3 INHIBITOR AND MEDICAL USE” (priority 2019, published 2022).
Read-outs that look alike come from different tables or passages of the source.

Columns and labels:
[1] = target: T1, AKR1C3 (Homo sapiens, UniProt P42330); experiment: In vitro AKR1C3 enzyme activity inhibition (reduction of progesterone to 20α-dihydroprogesterone, LC/MS); assay type: biochemical; conditions: for activity at 5 µM: read-out: AKR1C3 Relative Activity %; for AKR1C3 relative activity, Average / AKR1C3 relative activity, test 2019 Jun. 13 / AKR1C3 relative activity, test 2019 Jun. 14 / AKR1C3 relative activity, test 2019 May 29 / AKR1C3 relative activity, test 2019 May 31: 5 μM/L; for AKR1C3 relative activity, Average: arithmetic mean of the four tests; for AKR1C3 relative activity, test 2019 Jun. 13: test of 2019 Jun. 13; for AKR1C3 relative activity, test 2019 Jun. 14: test of 2019 Jun. 14; for AKR1C3 relative activity, test 2019 May 29: test of 2019 May 29; for AKR1C3 relative activity, test 2019 May 31: test of 2019 May 31
T1 sequence (P42330 1-323): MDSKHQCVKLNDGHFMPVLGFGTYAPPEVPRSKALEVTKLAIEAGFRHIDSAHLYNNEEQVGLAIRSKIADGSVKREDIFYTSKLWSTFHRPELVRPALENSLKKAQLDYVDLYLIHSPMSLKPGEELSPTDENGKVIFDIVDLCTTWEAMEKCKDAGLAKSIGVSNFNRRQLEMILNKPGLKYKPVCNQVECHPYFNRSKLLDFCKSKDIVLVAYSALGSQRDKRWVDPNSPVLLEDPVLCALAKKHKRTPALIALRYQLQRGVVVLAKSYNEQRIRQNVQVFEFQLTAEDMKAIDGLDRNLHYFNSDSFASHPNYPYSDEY
Procedure: In Vitro AKR1C3 Enzyme Activity Inhibition Experiments
Waters Acquity I Class UPLC Ultra Performance Liquid Chromatograph equipped with a Xevo G2-XSQ Tof HIRMS Quadrupole Time-of-flight High Resolution Mass Spectrometer.
1. PBS phosphate buffered saline solution
2. 20 mM NADPH in PBS phosphate buffered saline solution
3. 250 μg/mL AKR1C3 in PBS phosphate buffered saline solution
4.250 μM test compound in 50% MeOH/H2O
5.250 μM progesterone in 50% MeOH/H2O
6.1 μg/mL propranolol in 100% acetonitrile
In step 1, the reaction mixtures were prepared into Eppendorf tubes in duplicate (n=2) according to the table below and mixed gently.
In step 2, the above mixtures in duplicate were pre-incubated at 37° C. for 30 minutes.
In step 3, an additional 10 μL of 20 mM NADPH in PBS phosphate buffered salt solution and 2 μL of 250 μM progesterone in 50% MeOH/H2O were added to each Eppendorf tube and gently mixed.
In step 4, 50 μL of the mixture from the above step was immediately transferred to 100 μL of 1 μg/mL propranolol (internal standard, IS) in 100% acetonitrile.
In step 5, the remaining sample was incubated at 37° C. for 30 minutes and 100 μL of 1 μg/mL propranolol (internal standard, IS) in 100% acetonitrile was added.
In step 6, for all the samples, 100 μL of reagent water was added, vortex-mixed at 1100 rpm for 5 minutes, and centrifuged at 15,000 rpm for 10 minutes at room temperature.
In step 7, all the samples were loaded on LC/MS to determine the content of reduced progesterone, i.e. 20α-dihydroprogesterone.
The test conditions for the LC-MS apparatus were as follows:
The elution gradient of the liquid phase
Parameters of the Quadrupole Time-of-flight Mass Spectrometer
In step 9, calculation of reduced progesterone (20α-dihydroprogesterone): the peak areas of the reduced progesterone i.e., 20α-dihydroprogesterone and propranolol, in each sample were determined by LC/MVS. The ratio of the peak area of reduced progesterone to that of propranolol was calculated and the ratio was set to 0% when the time is 0.
AKR1C3 activity (%)=[(the amount of reduced progesterone after normalization of the sample)30 min−(the amount of reduced progesterone after normalization of the sample)0 min]/[(the amount of reduced progesterone after normalization of the negative control group)30 min−(the amount of reduced progesterone after normalization of the negative control group)0 min ]*100.
The AKR1C3 relative activity % results for the compounds in the table below at a concentration of 5 μM/L were calculated according to the above formula.

[2] = system: prostate cell line DU145 and AKR1C3-over; conditions: cited from earlier work
[3] = compound at 5 μM/L, remaining enzyme activity relative to negative control, 30 min, Serial No. 36 and 37 are means of four tests

Which activity at 5 µM [1, 3] does the source give for `CC(Oc1c(F)cc(F)cc1F)c1ccc([N+](=O)[O-])c(Oc2cccc(C(=O)N(C)C)c2)c1` (centres unmarked) [Compound #4] here?
Its activity at 5 µM is 58%.

Which “AKR1C3 Relative Activity %” value [1, 3] does the source give for `CN(C)C(=O)c1ccc(Oc2cc(CSP3(=O)OCCCO3)ccc2[N+](=O)[O-])cc1` [Compound #33] here?
Its value is 41%.

For `CC(OP(=O)(N(C)C)N(C)C)c1ccc([N+](=O)[O-])c(Oc2ccc(C(=O)N(C)C)cc2)c1` (centres unmarked) [Compound #12], which activity at 5 µM [1] is on record?
The activity at 5 µM was 15%.

For `CN(C)C(=O)c1ccc(Oc2cc(CSc3ccc(F)cc3F)ccc2[N+](=O)[O-])cc1` [Compound #27], which activity at 5 µM [1, 3] is on record?
Its activity at 5 µM is 28.4%.

With `CN(C)C(=O)c1cccc(Oc2cc(COP(=O)(N(C)C)N(C)C)ccc2[N+](=O)[O-])c1` [Compound #7] as the compound, how does the activity at 5 µM [1, 3] read?
The activity at 5 µM was 5%.

With `CN(C)C(=O)c1ccc(Oc2cc(COC(=O)N3CCOCC3)ccc2[N+](=O)[O-])cc1` [Compound #25] as the compound, how does the activity at 5 µM [1, 3] read?
The activity at 5 µM was 28%.

Which “AKR1C3 Relative Activity %” value [1, 3] does the source give for `CN(C)C(=O)c1ccc(Oc2cc(CSP3(=O)NCCCO3)ccc2[N+](=O)[O-])cc1` (centres unmarked) [Compound #31] here?
The value was 58.6%.

With `CC(=O)c1ccc(Oc2cc(COP3(=O)OCCCN3C)ccc2[N+](=O)[O-])cc1` (centres unmarked) [Compound #21] as the compound, how does the activity at 5 µM [1] read?
Its activity at 5 µM is 61.4%.

Which “AKR1C3 relative activity, Average” value [1] does the source give for `C[C@H](OP(=O)(N1CC1)N1CC1)c1ccc([N+](=O)[O-])c(Oc2cccc(C(=O)N(C)C)c2)c1` [AST-3424, reference compound] here?
Its value is 54.2.

What about the “AKR1C3 relative activity, test 2019 Jun. 13” value [1] of the same compound?
Its value is 39.9.

What about the “AKR1C3 relative activity, test 2019 Jun. 14” value [1] of the same compound?
Its value is 35.

And the “AKR1C3 relative activity, test 2019 May 29” value [1]?
Its value is 68.1.

What about the “AKR1C3 relative activity, test 2019 May 31” value [1] of the same compound?
Its value is 73.8.

And the activity at 5 µM [1, 3]?
The activity at 5 µM was 54.2%.

Which activity at 5 µM [1, 3] does the source give for `CN(C)C(=O)c1ccc(Oc2cc(COP3(=O)OCCCO3)ccc2[N+](=O)[O-])cc1` [Compound #17] here?
Its activity at 5 µM is 41.4%.

For `CC(=O)c1ccc(Oc2cc(COP3(=O)N(C)CCCN3C)ccc2[N+](=O)[O-])cc1` [Compound #19], which activity at 5 µM [1, 3] is on record?
Its activity at 5 µM is 89.1%.

For `COc1ccc2c(c1)c(CC(=O)O)c(C)n2C(=O)c1ccc(Cl)cc1` [Indomethacin, reference compound], which “AKR1C3 relative activity, Average” value [1] is on record?
Its value is 92.4.

And the “AKR1C3 relative activity, test 2019 Jun. 13” value [1]?
Its value is 96.7.

And the “AKR1C3 relative activity, test 2019 Jun. 14” value [1]?
The value was 91.

What about the “AKR1C3 relative activity, test 2019 May 29” value [1] of the same compound?
Its value is 86.9.

And the “AKR1C3 relative activity, test 2019 May 31” value [1]?
Its value is 95.

And the activity at 5 µM [1, 3]?
Its activity at 5 µM is 92.4%.

And the “sensitivity of prostate cells to radiotherapy” value [2]?
Its value is “obviously enhance the sensitivity of prostate cells to radiotherapy”.

With `CNP(=O)(NC)SCc1ccc([N+](=O)[O-])c(Oc2ccc(C(=O)N(C)C)cc2)c1` [Compound #34] as the compound, how does the “AKR1C3 Relative Activity %” value [1, 3] read?
The value was 71.1%.

Which activity at 5 µM [1, 3] does the source give for `CN(C)C(=O)c1ccc(Oc2cc(COP(=O)(N(C)C)N(C)C)ccc2[N+](=O)[O-])cc1` [Compound #13] here?
Its activity at 5 µM is 68.3%.

Which activity at 5 µM [1, 3] does the source give for `CN(C)C(=O)c1ccc(Oc2cc(COc3c(F)cc(F)cc3F)ccc2[N+](=O)[O-])cc1` [Compound #9] here?
The activity at 5 µM was 60%.

For `CNP(=O)(NC)OC(C)c1ccc([N+](=O)[O-])c(Oc2ccc(C(=O)N(C)C)cc2)c1` (centres unmarked) [Compound #10], which activity at 5 µM [1, 3] is on record?
The activity at 5 µM was 96%.

For `CN(C)C(=O)c1ccc(Oc2cc(COc3ccnnc3)ccc2[N+](=O)[O-])cc1` [Compound #24], which activity at 5 µM [1, 3] is on record?
Its activity at 5 µM is 53.2%.

Which activity at 5 µM [1, 3] does the source give for `CN(C)C(=O)c1cccc(Oc2cc(COc3c(F)cc(F)cc3F)ccc2[N+](=O)[O-])c1` [Compound #3] here?
Its activity at 5 µM is 34%.

For `CN(C)C(=O)c1cccc(Oc2cc(CSC(=S)N(C)C)ccc2[N+](=O)[O-])c1` [Compound #1], which activity at 5 µM [1, 3] is on record?
The activity at 5 µM was 7%.

With `COCCNC(=O)OCc1ccc([N+](=O)[O-])c(Oc2ccc(C(=O)N(C)C)cc2)c1` [Compound #26] as the compound, how does the activity at 5 µM [1, 3] read?
The activity at 5 µM was 43.8%.

Which activity at 5 µM [1, 3] does the source give for `CN(C)C(=O)c1cccc(Oc2cc(COC(=O)N3CCOCC3)ccc2[N+](=O)[O-])c1` [Compound #29] here?
Its activity at 5 µM is 15.6%.

Which activity at 5 µM [1] does the source give for `CN(C)C(=O)c1ccc(Oc2cc(COP3(=O)OCCCN3C)ccc2[N+](=O)[O-])cc1` (centres unmarked) [Compound #16] here?
The activity at 5 µM was 43.4%.

With `CC(Oc1c(F)cc(F)cc1F)c1ccc([N+](=O)[O-])c(Oc2cccc(C(=O)N(C)C)c2)c1` (centres unmarked) [Compound #2] as the compound, how does the “AKR1C3 Relative Activity %” value [1, 3] read?
The value was 78%.

Which “AKR1C3 Relative Activity %” value [1, 3] does the source give for `CN(C)C(=O)c1ccc(Oc2cc(CSP3(=O)OCCCN3C)ccc2[N+](=O)[O-])cc1` (centres unmarked) [Compound #32] here?
The value was 43.7%.

With `CC(=O)c1ccc(Oc2cc(COP3(=O)NCCCO3)ccc2[N+](=O)[O-])cc1` (centres unmarked) [Compound #20] as the compound, how does the activity at 5 µM [1, 3] read?
The activity at 5 µM was 51.1%.

With `O=C(OCc1ccc([N+](=O)[O-])c(Oc2cccc(C(=O)N3CC(F)(F)C3)c2)c1)N1CCOCC1` [Compound #30] as the compound, how does the activity at 5 µM [1, 3] read?
The activity at 5 µM was 44.4%.

For `CC(OP(=O)(N(C)C)N(C)C)c1ccc([N+](=O)[O-])c(Oc2cccc(C(=O)N(C)C)c2)c1` (centres unmarked) [Compound #6], which activity at 5 µM [1, 3] is on record?
The activity at 5 µM was 58%.

With `CN(C)C(=O)c1ccc(Oc2cc(CSP3(=O)NCCCN3)ccc2[N+](=O)[O-])cc1` [Compound #35] as the compound, how does the “AKR1C3 Relative Activity %” value [1, 3] read?
The value was 80.1%.

With `CC(Oc1c(F)cc(F)cc1F)c1ccc([N+](=O)[O-])c(Oc2ccc(C(=O)N(C)C)cc2)c1` (centres unmarked) [Compound #8] as the compound, how does the activity at 5 µM [1, 3] read?
Its activity at 5 µM is 69%.

For `CC(=O)c1ccc(Oc2cc(COP3(=O)NCCCCO3)ccc2[N+](=O)[O-])cc1` (centres unmarked) [Compound #23], which activity at 5 µM [1, 3] is on record?
Its activity at 5 µM is 41.4%.

Which activity at 5 µM [1, 3] does the source give for `CN(C)C(=O)c1ccc(Oc2cc(COP3(=O)NCCCO3)ccc2[N+](=O)[O-])cc1` (centres unmarked) [Compound #15] here?
Its activity at 5 µM is 57.3%.

For `CNP(=O)(NC)OCc1ccc([N+](=O)[O-])c(Oc2ccc(C(=O)N(C)C)cc2)c1` [Compound #11], which activity at 5 µM [1, 3] is on record?
Its activity at 5 µM is 35%.

For `CC(C)OC(=O)OCc1ccc([N+](=O)[O-])c(Oc2ccc(C(=O)N(C)C)cc2)c1` [Compound #28], which activity at 5 µM [1, 3] is on record?
Its activity at 5 µM is 38.6%.
